Assay results published in US9815854B2, “3-(3H-imidazo[4,5-B]pyridin-2-yl)-1H-pyrazolo[3,4-C]pyridine and therapeutic uses thereof” (Samumed, LLC, priority 2014, dated 2017).

Experiments:
[1] = test system: primary human fibroblasts derived from IPF patients (LL29 cells); experiment: Inhibition of the fibrotic process in TGF-β1-treated primary human fibroblasts from IPF patients (αSMA staining); format: cell-based; conditions: Fibroblast, 96 h, TGF-β1 20 ng/mL, 4 days, read-out: Inhibition of fibrosis EC50
How it was run: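 IPF-derived LL29 lung fibroblasts, 1,500 per well in F12 with 1% FBS, treated with compound (10 μM to […], 0.1% DMSO) and TGF-β1 20 ng/mL for 4 days at 37 °C. αSMA-positive live cells imaged and normalised to TGF-β1 controls; EC50 by nonlinear regression over triplicate wells.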

[2] = test system: primary human mesenchymal stem cells (hMSCs); experiment: Chondrogenesis induction screen in primary human mesenchymal stem cells (nodule imaging, Rhodamine B/Nile Red); format: cell-based; conditions: 6 days; for Max. Activity as % TGF-β3 activity: TGF-β3 (10 ng/mL) positive control; for EC (100% of TGF-b3 activity): Homo sapiens, Mesenchymal stem cells, 144 h, concentration required to induce chondrogenesis equivalent to TGF-β3 (10 ng/mL), read-out: Conc (nM) of 100% TGF-β3 activity
Description: The above synthesized compounds were screened using primary human mesenchymal stem cells (hMSCs) to determine their ability to induce chondrogenesis (process by which cartilage is developed).
Human Mesenchymal Stern Cell Culture: Primary human mesenchymal stem cells (hMSCs) were purchased from Lonza (Walkersville, Md.) and expanded in Mesenchymal Stem Cell Growth Media (Lonza). Cells between passage 3 and 6 were used for the experiments.
Compound Screening: Each compound was dissolved in DMSO as a 10 mM stock and used to prepare compound source plates. Serial dilution (1:3, 6-point dose-response curves from 2700 nM to 10 nM) and compound transfer was performed using the ECHO 550 (Labcyte, Sunnyvale, Calif.) into 96-well clear bottom assay plates (Greiner Bio-One) with appropriate DMSO backfill for a final DMSO concentration of 0.03%. hMSCs were plated at 20,000 cells/well in 250 μL/well incomplete Chondrogenic induction Medium (Lonza; DMEM, dexamethasone, ascorbate, insulin-transferrin-selenium [ITS supplement], gentamycin-amphotericin [GA-1000], sodium pyruvate, proline and L-glutamine). TGF-β3 (10 ng/mL) was used as a positive control for differentiation while negative control wells were treated with 75 nL DMSO for normalization and calculating EC50 values. Cells were incubated at 37° C. and 5% CO2 for 6 days. To image chondrogenic nodules, the cells were fixed using 4% formaldehyde (Electron Microscopy Sciences), and stained with 2 μg/mL Rhodamine B (Sigma-Aldrich) and 20 μM Nile Red (Sigma-Aldrich) [Johnson K., et.al, A Stem Cell-Based Approach to Cartilage Repair, Science, (2012), 336(6082), 717-721]. The nodules imaged (4 images per well at 4× magnification) by excitation at 531 nm and emission at 625 nm and quantified using the CellInsight CX5 (Thermo Scientific). Number of nodules in each well was normalized to the average of 3 DMSO treated wells on the same plate using Excel (Microsoft Inc.). The normalized averages (fold change over DMSO) of 3 replicate wells for each compound concentration were calculated. Due to solubility limitations of some of the compounds, curve fitting was incomplete leading to inaccurate EC50 determinations.
Using TGF-β3 as a positive control, the concentration of test compounds required to induce equivalent levels of chondrogenesis is reported. In addition, the maximum activity of each compound and the respective dose that each compound reached maximum chondrogenesis activity is reported.

[3] = test system: Wnt activity (Sp5-Luc reporter, TCF/LEF binding sites) in SW480 colon carcinoma cells; experiment: Sp5-Luc Wnt reporter gene screening assay in SW480 colon carcinoma cells; format: cell-based, human; conditions: Homo sapiens
How it was run: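 SW480 cells stably transduced with a lentiviral luciferase reporter driven by a Sp5 promoter with eight TCF/LEF sites were plated at 10,000/well in 10% FCS medium. Luminescence was normalised to DMSO and IC50 derived by four-parameter fit.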

| Structure (SMILES) | EC50 [1] [nM] | Max. Activity as % TGF-β3 activity [2] [%] | EC (100% of TGF-b3 activity) [2] [nM] | IC50 [3] [nM] |
| --- | --- | --- | --- | --- |
| Oc1cncc(-c2cc3c(-c4nc5c(-c6cccc(F)c6)ccnc5[nH]4)n[nH]c3cn2)c1 [Compound 949, 5-(3-(7-(3-Fluorophenyl)-3H-imidazo[4,5-b]pyridin-2-yl)-1H-pyrazolo[3,4-c]pyridin-5-yl)pyridin-3-ol] | 31 | 100 | 143 | 111 |
| CC(C)Nc1cncc(-c2cc3c(-c4nc5c(-c6ccc(F)cc6)ccnc5[nH]4)n[nH]c3cn2)c1 [Compound 38, 5-(3-(7-(4-Fluorophenyl)-3H-imidazo[4,5-b]pyridin-2-yl)-1H-pyrazolo[3,4-c]pyridin-5-yl)-N-isopropylpyridin-3-amine] | 34 | 300 | 74.9 | 10.3 |
| Cc1ccncc1-c1cc2c(-c3nc4c(-c5cc(F)cc(CNS(C)(=O)=O)c5)ccnc4[nH]3)n[nH]c2cn1 [Compound 421, N-(3-Fluoro-5-(2-(5-(4-methylpyridin-3-yl)-1H-pyrazolo[3,4-c]pyridin-3-yl)-3H-imidazo[4,5-b]pyridin-7-yl)benzyl)methanesulfonamide] |  | 30 | 70 | 23.3 |
| CC(C)(C)C(=O)Nc1cncc(-c2cc3c(-c4nc5c(-c6ccsc6)ccnc5[nH]4)n[nH]c3cn2)c1 [Compound 268, N-(5-(3-(7-(Thiophen-3-yl)-3H-imidazo[4,5-b]pyridin-2-yl)-1H-pyrazolo[3,4-c]pyridin-5-yl)pyridin-3-yl)pivalamide] | 141 |  | 25.8 | 9.7 |
| Fc1cccc(-c2ccnc3[nH]c(-c4n[nH]c5cnc(-c6cncc(CN7CCC(F)(F)C7)c6)cc45)nc23)c1 [Compound 25, 5-(5-((3,3-Difluoropyrrolidin-1-yl)methyl)pyridin-3-yl)-3-(7-(3-fluorophenyl)-3H-imidazo[4,5-b]pyridin-2-yl)-1H-pyrazolo[3,4-c]pyridine] | 20 |  | 112 | 22.1 |
| CC(C)(C)CC(=O)Nc1cncc(-c2cc3c(-c4nc5c(-c6ccccc6F)ccnc5[nH]4)n[nH]c3cn2)c1 [Compound 68, N-(5-(3-(7-(2-Fluorophenyl)-3H-imidazo[4,5-b]pyridin-2-yl)-1H-pyrazolo[3,4-c]pyridin-5-yl)pyridin-3-yl)-3,3-dimethylbutanamide] | 90 |  | 9.3 | 24.4 |
| FC1(F)CCN(Cc2cncc(-c3cc4c(-c5nc6c(N7CCCCC7)ccnc6[nH]5)n[nH]c4cn3)c2)C1 [Compound 181, 5-(5-((3,3-Difluoropyrrolidin-1-yl)methyl)pyridin-3-yl)-3-(7-(piperidin-1-yl)-3H-imidazo[4,5-b]pyridin-2-yl)-1H-pyrazolo[3,4-c]pyridine] | 53 |  | 25.6 | 16.7 |
| O=C(CC1CCNCC1)Nc1cncc(-c2cc3c(-c4nc5c(-c6cccc(F)c6)ccnc5[nH]4)n[nH]c3cn2)c1 [Compound 945] | 40 |  | 54.7 | 463 |
| c1cncc(-c2cc3c(-c4nc5cccnc5[nH]4)n[nH]c3cn2)c1 [Compound 238] | 369 | 30 | 113 | 16.1 |
| O=C(Nc1cncc(-c2cc3c(-c4nc5c(-c6ccc(F)cc6)ccnc5[nH]4)n[nH]c3cn2)c1)C1CCC1 [Compound 46, N-(5-(3-(7-(4-Fluorophenyl)-3H-imidazo[4,5-b]pyridin-2-yl)-1H-pyrazolo[3,4-c]pyridin-5-yl)pyridin-3-yl)cyclobutanecarboxamide] | 240 |  |  | 50.8 |
| CN(C)CCOc1cncc(-c2cc3c(-c4nc5c(-c6cccc(F)c6)ccnc5[nH]4)n[nH]c3cn2)c1 [Compound 947, 2-((5-(3-(7-(3-Fluorophenyl)-3H-imidazo[4,5-b]pyridin-2-yl)-1H-pyrazolo[3,4-c]pyridin-5-yl)pyridin-3-yl)oxy)-N,N-dimethylethan-1-amine] | ≥ 9990 |  |  | 1600 |
| Cn1cc(-c2cc3c(-c4nc5c(-c6cccc(F)c6)ccnc5[nH]4)n[nH]c3cn2)cn1 [Compound 940, 3-(7-(3-Fluorophenyl)-3H-imidazo[4,5-b]pyridin-2-yl)-5-(1-methyl-1H-pyrazol-4-yl)-1H-pyrazolo[3,4-c]pyridine] | 353 |  |  | 405 |
| O=C(Nc1cncc(-c2cc3c(-c4nc5c(-c6cccc(F)c6)ccnc5[nH]4)n[nH]c3cn2)c1)C1CC1 [Compound 19, N -(5-(3-(7-(3-Fluorophenyl)-3H-imidazo[4,5-b]pyridin-2-yl)-1H-pyrazolo[3,4-c]pyridin-5-yl)pyridin-3-yl)cyclopropanecarboxamide] | 301 |  |  | 46.5 |
| O=C(Nc1cncc(-c2cc3c(-c4nc5c(-c6cccs6)ccnc5[nH]4)n[nH]c3cn2)c1)C1CC1 [Compound 331] | 319 |  |  | 83.1 |
| CCCC(=O)Nc1cncc(-c2cc3c(-c4nc5c(-c6cccs6)ccnc5[nH]4)n[nH]c3cn2)c1 [Compound 329, N-(5-(3-(7-(Thiophen-2-yl)-3H-imidazo[4,5-b]pyridin-2-yl)-pyrazolo[3,4-c]pyridin-5-yl)pyridin-3-yl)butyramide] | 34 | 300 | 110 | 17.5 |
| CCCC(=O)Nc1cncc(-c2cc3c(-c4nc5c(-c6ccc(C)s6)ccnc5[nH]4)n[nH]c3cn2)c1 [Compound 381, N-(5-(3-(7-(5-Methylthiophen-2-yl)-3H-imidazo[4,5-b]pyridin-2-yl)-1H-pyrazolo[3,4-c]pyridin-5-yl)pyridin-3-yl)butyramide] | 18 |  | 59.6 | 9.5 |
| CS(=O)(=O)NCc1cc(F)cc(-c2ccnc3[nH]c(-c4n[nH]c5cnc(-c6cncc(NC(=O)c7ccccc7)c6)cc45)nc23)c1 [Compound 427, N-(5-(3-(7-(3-Fluoro-5-(methylsulfonamidomethyl)phenyl)-3H-imidazo[4,5-b]pyridin-2-yl)-1H-pyrazolo[3,4-c]pyridin-5-yl)pyridin-3-yl)benzamide] | ≥ 9990 |  |  | > 10000 |
| Cc1ncc(-c2cc3c(-c4nc5c(-c6cccc(F)c6)ccnc5[nH]4)n[nH]c3cn2)n1C [Compound 941] | 1000 |  |  | > 10000 |
| Cc1ccc(-c2ccnc3[nH]c(-c4n[nH]c5cnc(-c6cncc(CN7CCCCC7)c6)cc45)nc23)s1 [Compound 379, 3-(7-(5-Methylthiophen-2-yl)-3H-imidazo[4,5-b]pyridin-2-yl)-5-(5-(piperidin-1-ylmethyl)pyridin-3-yl)-1H-pyrazolo[3,4-c]pyridine] | 299 |  |  | 180 |
